Laboratory results taken from patent publication US9556158B2, “Fungicidal 3-[(pyridin-2-ylmethoxyimino)(phenyl)methyl]-2-substituted-1,2,4-oxadiazol-5(2H)-one derivatives” (BAYER INTELLECTUAL PROPERTY GMBH, priority 2011, dated 2017).

How the values were obtained:
Phytophthora infestans [1] = type: in vivo; conditions: 100 ppm of active ingredient, preventive spray, inoculation one day after treatment, evaluated 7 days after inoculation
Plasmopara viticola = experiment: Example I: in vivo preventive test on Plasmopara viticola (grapevine); conditions: 144 h, 10 ppm of active ingredient, preventive spray on young plants, evaluated 6 days after inoculation, read-out: Eff. %
Protocol: In Vivo Preventive Test on Plasmopara viticola (Grapevine)
To produce a suitable preparation of active compound, 1 part by weight of active compound is mixed with the stated amounts of solvent and emulsifier, and the concentrate is diluted with water to the desired concentration.
To test for preventive activity, young plants are sprayed with the preparation of active compound at the stated rate of application. After the spray coating has dried on, the plants are inoculated with an aqueous spore suspension of Plasmopara viticola and then remain for 1 day in an incubation cabinet at approximately 20° C. and a relative atmospheric humidity of 100%. The plant is subsequently placed for 4 days in a greenhouse at approximately 21° C. and a relative atmospheric humidity of approximately 90%. The plants are then misted and placed for 1 day in an incubation cabinet.
The test is evaluated 6 days after the inoculation. 0% means an efficacy which corresponds to that of the untreated control, while an efficacy of 100% means that no disease is observed.

[2] = pH 2.7, LogP, HPLC on reversed phase columns, pH 2.7, 0.1% formic acid in water / acetonitrile gradient
Protocol: Measurement of log P values was performed according EEC directive 79/831 Annex V.A8 by HPLC (High Performance Liquid Chromatography) on reversed phase columns with the following method:
Measurement of LC-MS was done at pH 2.7 with 0.1% formic acid in water and with acetonitrile (contains 0.1% formic acid) as eluent with a linear gradient from 10% acetonitrile to 95% acetonitrile.
Calibration was done with not branched alkan2-ones (with 3 to 16 carbon atoms) with known log P-values (measurement of log P values using retention times with linear interpolation between successive alkanones). lambda-maX-values were determined using UV-spectra from 200 nm to 400 nm and the peak values of the chromatographic signals.

Botrytis cinerea = experiment: Example B: in vivo preventive test on Botrytis cinerea (grey mould); conditions: 500 ppm, preventive spray on gherkin plants, contamination after 24 hours, grading 4 to 5 days after contamination vs control plants
Protocol: In Vivo Preventive Test on Botrytis Cinerea (Grey Mould)
The active ingredients tested are prepared by homogenization in a mixture of acetone/tween/DMSO and then diluted with water to obtain the desired active material concentration.
Gherkin plants (“Vert petit de Paris” variety), sown in starter cups on a 50/50 peat soil-pozzolana substrate and grown at 24° C., are treated at the Z11 cotyledon stage by spraying with the active ingredient prepared as described above. Plants, used as controls, are treated with the mixture of acetone/tween/DMSO/water not containing the active material.
After 24 hours, the plants are contaminated by spraying the cotyledons with an aqueous suspension of cryopreserved Botrytis cinerea spores (50 000 spores per ml). The spores are suspended in a nutrient solution composed of 10 g/L of PDB, 50 g/L of D-Fructose, 2 g/L of NH4NO3 and 1 g/L of KH2PO4. The contaminated gherkin plants are incubated at 17° C. and at 90% relative humidity.
Grading (% of efficacy) is carried out 4 to 5 days after the contamination, in comparison with the control plants.
(§1) Under these conditions, good (at least 70%) or total protection is observed at a dose of 500 ppm with the following compounds: […]

Phytophthora infestans [3] = experiment: whole plant or invertebrate; type: in vivo; conditions: in Solanum lycopersicum, 120 h, read-out: % efficacy
Pyricularia oryzae = experiment: whole plant or invertebrate; type: in vivo; conditions: 144 h, read-out: % efficacy
Pyrenophora teres = experiment: Example D: in vivo preventive test on Pyrenophora teres (net blotch on barley); conditions: 500 ppm, preventive spray on barley plants, contamination after 24 hours, grading 14 days after contamination vs control plants
Protocol: In Vivo Preventive Test on Pyrenophora teres (Net Blotch on Barley)
(§2) The active ingredients tested are prepared by homogenization in a mixture of acetone/tween/DMSO, and then diluted with water to obtain the desired active material concentration.
Barley plants (“Plaisant” variety), sown in starter cups on a 50/50 peat soil-pozzolana substrate and grown at 22° C., are treated at the 1-leaf stage (10 cm height) by spraying with the active ingredient prepared as described above. Plants, used as controls, are treated with the mixture of acetone/tween/DMSO/water not containing the active material.
After 24 hours, the plants are contaminated by spraying the leaves with an aqueous suspension of Pyrenophora teres spores (12 000 spores per ml). The spores are collected from a 12-day-old culture. The contaminated barley plants are incubated for 48 hours at 20° C. and at 100% relative humidity, and then for 12 days at 20° C. at 70-80% relative humidity.
Grading (% of efficacy) is carried out 14 days after the contamination, in comparison with the control plants.
as §1

Puccinia recondita = experiment: Example E: in vivo preventive test on Puccinia recondita (brown rust on wheat); conditions: 500 ppm, preventive spray on wheat plants, contamination after 24 hours, grading 12 days after contamination vs control plants
Protocol: In Vivo Preventive Test on Puccinia recondita (Brown Rust on Wheat)
as §2
Wheat plants (“Scipion” variety), sown in starter cups on a 50/50 peat soil-pozzolana substrate and grown at 22° C., are treated at the 1-leaf stage (10 cm height) by spraying with the active ingredient prepared as described above. Plants, used as controls, are treated with the mixture of acetone/tween/DMSO/water not containing the active material.
(§3) After 24 hours, the plants are contaminated by spraying the leaves with an aqueous suspension of Puccinia recondita spores (100 000 spores per ml). The spores are collected from an infected plant and are suspended in water containing 2.5 ml/l of Tween 80 at 10%. The contaminated wheat plants are incubated for 24 hours at 20° C. and at 100% relative humidity, and then for 10 days at 20° C. and at 70-80% relative humidity.
Grading (% of efficacy) is carried out 12 days after the contamination, in comparison with the control plants.
as §1

Uromyces appendiculatus = experiment: Example C: in vivo preventive test on Uromyces appendiculatus (bean rust); conditions: 500 ppm, preventive spray on bean plants, contamination after 24 hours, grading 11 days after contamination vs control plants
Protocol: In Vivo Preventive Test on Uromyces appendiculatus (Bean Rust)
as §2
Bean plants (“Saxa” variety), sown in starter cups on a 50/50 peat soil-pozzolana substrate and grown at 24° C., are treated at the 2-leaf stage (9 cm height) by spraying with the active ingredient prepared as described above. Plants, used as controls, are treated with the mixture of acetone/tween/DMSO/water not containing the active material.
as §3, with “of Uromyces appendiculatus” for “of Puccinia recondita”, “spores (150” for “spores (100”, “from” for “from an”, “infected plants” for “infected plant”, “contaminated bean” for “contaminated wheat”
Grading (% of efficacy) is carried out 11 days after the contamination, in comparison with the control plants.
as §1

| SMILES | Eff. % (Phytophthora infestans [1]) | pest or weed control at 10 ppm (Plasmopara viticola) | chromatographic logP [2] | % efficacy (Botrytis cinerea) | pest or weed control at 500 ppm (Phytophthora infestans [3]) | pest or weed control at 500 ppm (Pyricularia oryzae) | % efficacy (Pyrenophora teres) | % efficacy (Puccinia recondita) | % efficacy (Uromyces appendiculatus) |
| --- | --- | --- | --- | --- | --- | --- | --- | --- | --- |
| Cn1oc(=O)nc1/C(=N\OCc1cccc(NC(=O)OC(C)(C)C)n1)c1ccccc1 [Example 2, tert-butyl {6-[({[(Z)-(2-methyl-5-oxo-2,5-dihydro-1,2,4-oxadiazol-3-yl)(phenyl)methylene]amino}oxy)methyl]pyridin-2-yl}carbamate] | 100% | 100% | 3.31 | – | – | – | – | – | – |
| Cn1oc(=O)nc1C(=NOCc1cccc(NC(=O)c2cccc(F)c2)n1)c1ccccc1 [Example 10] | – | – | 3.11 | 71% | 99% | 79% | – | – | – |
| CCCCOCCNc1cccc(CON=C(c2ccccc2)c2nc(=O)on2C)n1 [Example 6] | 95% | – | 2.13 | – | – | – | – | – | – |
| COc1cccc(C(=NOCc2cccc(NC(=O)COc3ccccc3)n2)c2nc(=O)o[nH]2)c1 [Example 45] | – | – | 3.17 | – | 88% | – | 71% | – | – |
| COc1cccc(C(=NOCc2cccc(NC(=O)OC(C)(C)C)n2)c2nc(=O)on2C)c1 [Example 22] | – | – | 3.39 | – | – | – | – | 94% | – |
| CCCC(C)C(=O)Nc1cccc(CON=C(c2ccccc2)c2nc(=O)on2C)n1 (centres unmarked) [Example 18] | – | – | 3.19 | – | 100% | – | – | 78% | – |
| Cn1oc(=O)nc1C(=NOCc1cccc(NCCc2ccccc2)n1)c1ccccc1 [Example 7] | 95% | 96% | 2.23 | – | – | – | – | – | – |
| Cn1oc(=O)nc1C(=NOCc1cccc(NC(=O)C(C)(C)C)n1)c1ccccc1 [Example 9] | – | – | 2.86 | – | 99% | 71% | – | 71% | – |
| Cn1oc(=O)nc1C(=NOCc1cccc(NC(=O)OCc2ccccc2)n1)c1ccccc1 [Example 17] | – | 82% | 3.41 | – | 100% | – | – | 83% | – |
| CCCCCCNc1cccc(CON=C(c2ccccc2)c2nc(=O)on2C)n1 [Example 5] | 95% | 96% | 2.2 | – | – | – | – | – | – |
| COc1ccc(CC(=O)Nc2cccc(CON=C(c3ccccc3)c3nc(=O)on3C)n2)cc1 [Example 16] | – | 94% | 2.92 | – | 100% | – | – | 89% | 81% |
| Cc1cccc(C(=NOCc2cccc(NC(=O)COc3ccccc3)n2)c2nc(=O)on2C)c1 [Example 55] | – | – | 3.39 | 85% | 100% | 83% | – | – | – |
| C#CCC(C)(C)OC(=O)Nc1cccc(CO/N=C(/c2ccccc2)c2nc(=O)on2C)n1 [Example 35, 2-methylpent-4-yn-2-yl {6-[({[(Z)-(2-methyl-5-oxo-2,5-dihydro-1,2,4-oxadiazol-3-yl)(phenyl)methylene]amino}oxy)methyl]pyridin-2-yl}carbamate] | – | 100% | 3.31 | 90% | 100% | – | – | – | – |
| Cn1oc(=O)nc1C(=NOCc1cccc(NCC2CCCCC2)n1)c1ccccc1 [Example 4] | 95% | 94% | 2.44 | – | – | – | – | – | – |
| C#CCCOC(=O)Nc1cccc(CO/N=C(/c2ccccc2)c2nc(=O)on2C)n1 [Example 1, but-3-yn-1-yl {6-[({[(Z)-(2-methyl-5-oxo-2,5-dihydro-1,2,4-oxadiazol-3-yl)(phenyl)methylene]amino}oxy)methyl]pyridin-2-yl}carbamate] | 98% | 99% | 2.71 | – | – | – | – | – | – |
| CC(C)CC(=O)Nc1cccc(CON=C(c2ccccc2)c2nc(=O)on2C)n1 [Example 19] | – | – | 2.82 | – | 100% | – | – | 89% | – |
